Laboratory results published in US8685408B2 (priority 2006, dated 2014).
Like-named read-outs stand apart in the source and are kept apart here.

What was measured:
EG7 tumor [1] = tested on: EG7 tumor; design: species or system C57BL6 mice; details: mouse, in vivo, sc
dendritic cells = tested on: dendritic cells; design: species or system mice; details: mouse, in vivo
EG7 tumor [2] = tested on: EG7 tumor; design: species or system C57BL6 mice; details: mouse, in vivo, sc; remark: listed apart in the source
Gb3 = tested on: Gb3; design: species or system mice; details: mouse, in vivo
[3] = tested on: anti-OVA257-264 CD8^+T cells; design: species or system C57BL/6 mice; details: mouse, in vivo

## CCCCCCCCCCCCCCCCCCCCCCCCCC(=O)N[C@@H](CC[C@H]1O[C@H](CO)[C@H](O)[C@H](O)[C@H]1O)[C@H](O)[C@H](O)CCCCCCCCCCCCCC [C-αGalCer]
EG7 tumor [1]
  growth of EG7 tumor: will not control the growth of the tumor

## CCCCCCCCCCCCCCCCCCCCCCCCCC(=O)N[C@@H](CO[C@H]1O[C@H](CO)[C@H](O)[C@H](O)[C@H]1O)[C@H](O)[C@H](O)CCCCCCCCCCCCCC [α-GalCer, (2S,3S,4S)-1-O-(α-D-galactopyranosyloxy)-2-hexacosanoylamino-3,4-octadecanediol]
Dendritic cells
  costimulatory molecules (CD86) and MHC class II / activation of dendritic cells: rapid increase
EG7 tumor [2]
  growth of EG7 tumor: did not control the growth of the tumor
Gb3
  membrane expression of Gb3 on dendritic and B cells: did not regulate

## Poly (I:C)
Dendritic cells
  costimulatory molecules (CD86) and MHC class II / activation of dendritic cells: also activated dendritic cells

B1: OVA (protein, UniProt P01012 2-386, looked up)
Ovalbumin: GSIGAASMEFCFDVFKELKVHHANENIFYCPIAIMSALAMVYLGAKDSTRTQINKVVRFDKLPGFGDSIEAQCGTSVNVHSSLRDILNQITKPNDVYSFSLASRLYAEERYPILPEYLQCVKELYRGGLEPINFQTAADQARELINSWVESQTNGIIRNVLQPSSVDSQTAMVLVNAIVFKGLWEKAFKDEDTQAMPFRVTEQESKPVQMMYQIGLFRVASMASEKMKILELPFASGTMSMLVLLPDEVSGLEQLESIINFEKLTEWTSSNVMEERKIKVYLPRMKMEEKYNLTSVLMAMGITDVFSSSANLSGISSAESLKISQAVHAAHAEINEAGREVVGSAEAGVDAASVSEEFRADHPFLFCIKHIATNAVLFFGRCVSP
[3]
  induction of anti-OVA257-264 CD8^+T cells: no significant induction
